Experimental data from patent US6333330A, “Pyrazolopyrimidinone CGMP PDE5 inhibitors for the treatment of sexual dysfunction” (Pfizer Inc., priority 1998, dated 2001).

test system: cGMP PDE5; assay: In vitro PDE inhibitory activity against cGMP PDE5 (IC50); assay type: biochemical; conditions: table of Examples, read-out: IC50 (in vitro activities as inhibitors of cGMP PDE5)
Procedure: In vitro PDE inhibitory activities against cyclic guanosine 3', 5'-monophosphate (cGMP) and cyclic adenosine 3',5'-monophosphate (cAMP) phosphodiesterases were determined by measurement of their IC50 values (the concentration of compound required for 50% inhibition of enzyme activity).
The required PDE enzymes were isolated from a variety of sources, including human corpus cavernosum, human and rabbit platelets, human cardiac ventricle, human skeletal muscle and bovine retina, essentially by the method of W. J. Thompson and M. M. Appleman (Biochem., 1971, 10, 311). In particular, the cGMP-specific PDE (PDE5) and the cGMP-inhibited cAMP PDE (PDE3) were obtained from human corpus cavernosum tissue, human platelets or rabbit platelets; the cGMP-stimulated PDE (PDE2) was obtained from human corpus cavernosum; the calcium/calmodulin (Ca/CAM)-dependent PDE (PDE1) from human cardiac ventricle; the cAMP-specific PDE (PDE4) from human skeletal is muscle; and the photoreceptor PDE (PDE6) from bovine retina.
Assays were performed using a modification of the "batch" method of W. J. Thompson et al. (Biochem., 1979, 18, 5228).

Compound | IC50 [nM]
CCN1CCN(S(=O)(=O)c2cnc(OCCOC)c(-c3nc4c(C(N)=O)nn(Cc5ccccn5)c4c(=O)[nH]3)c2)CC1 [Example 33, 5-[5-(4-Ethylpiperazin-1-ylsulphonyl)-2-(2-methoxyethoxy)pyridin-3-yl]-7-oxo-1-(pyridin-2-yl)methyl-1,6-dihydro-1H-pyrazolo[4,3-d]pyrimidine-3-carboxamide] | 2.8
CCOc1ncc(S(=O)(=O)N2CCN(CC)CC2)cc1-c1nc2c(-c3cccnc3)n(Cc3ncccn3)nc2c(=O)[nH]1 [Example 42] | 2.26
CCCOc1ccc(S(=O)(=O)N2CCN(CCO)CC2)cc1-c1nc2c(C(N)=O)nn(Cc3ccccn3)c2c(=O)[nH]1 [Example 5] | 2.8
CCCOc1ccc(S(=O)(=O)N2CCN(C)CC2)cc1-c1nc2c(C(=O)NC)nn(Cc3cccnc3)c2c(=O)[nH]1 [Example 8] | 4.1
CCOc1ccc(S(=O)(=O)N2CCN(C)CC2)cc1-c1nc2c(C(=O)NC)nn(Cc3ccccc3)c2c(=O)[nH]1 [Example 19, 1-Benzyl-5-[2-ethoxy-5-(4-methylpiperazin-1-ylsulphonyl)]-7-oxo-1,6-dihydro-1H-pyrazolo[4,3-d]pyrimidine-3-N-methylcarboxamide] | 3.4
